Reference: patent US7579356B2, “Thia-tetraazaacenaphthylene kinase inhibitors” (Janssen Pharmaceutica NV, priority 2005, dated 2009)

Assays:
A375 malignant melanoma = assay: Cell Proliferation Inhibition Assay, A375 (14C-thymidine); type: cell-based; settings: Homo sapiens, A-375
Source text: (§1) Cell Proliferation Inhibition Assay
(§2) The ability of a test compound to inhibit unregulated cell proliferation may be determined by measuring incorporation of ^14C-labelled thymidine into newly synthesized DNA within cell lines derived from carcinomas originating from several tissues. Accordingly, the effect of a test compound on proliferation of cells with a variety of phenotypes may be determined.
(§3) Carcinoma cell lines used include the HeLa cervical adenocarcinoma from the American Type Culture Collection (ATCC Cat. #CCL2), A375 malignant melanoma (ATCC Cat. #CRL-1619), HCT-116 colon carcinoma (ATCC Cat. #CCL-247), SKBR3 breast carcinoma (ATCC Cat. #HTB-30) and BT474 breast carcinoma (ATCC Cat. #HTB-20).
(§4) The carcinoma cells were trypsinized and counted. The cells (3000-8000 count) were added to each well of a 96-well CytoStar tissue culture treated scintillating microplate (Amersham #RPNQ0160) in complete medium (100 μL) and the plate was then incubated in complete medium for 24 hrs at 37° C. in an inert atmosphere containing 5% CO2.
(§5) Test compound (1 μL) in 100% DMSO was added to the plate test-wells with DMSO only added to control-wells. The plate was incubated in complete medium for a second 24 hr period at 37° C. in an atmosphere containing 5% CO2.
(§6) An aliquot of a solution of Methyl ^14C-thymidine (56 mC/mmol) (NEN #NEC568 or AMersham #CFA532) and complete medium (20 uL to provide 0.2 μCl/well) was then added to each well and the plate was incubated for a third 24 hr period at 37° C. in an atmosphere containing 5% CO2.
(§7) The plate contents were then discarded, the plate washed twice with PBS (200 μL) and then PBS (200 μL) was added to each well. The plate was sealed and the degree of methyl ^14C-thymidine incorporation was quantified on a Packard Top Count.
(§8) Cell proliferation of the Hela cell line was measured using the ATP-Lite method as described in the ATP Lite Kit (Perkin-Elmer Kit Number 6106941) or the C^14 method as described above. Cell proliferation of the other cell lines was measured using the C^14 method.

[1] = test system: HeLa cervical adenocarcinoma; assay: Cell Proliferation Inhibition Assay, Hela (C14 method); type: cell-based; settings: Homo sapiens, Table 7
Source text: as §1, §2, §3, §4, §5, §6, §7, §8

HER-2 = target: T1, HER-2 (Homo sapiens, UniProt P04626); assay: HER-2 Kinase Assay; type: biochemical; settings: for inhibition at 1 µM: test concentration of 1 μM; for IC50: value in parentheses
T1 construct: His6 with thrombin site (N); purchased Proqinase (Freiburg, Germany)
Summary of the method: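 Read-out was scintillation counting of 33P incorporated into biotinylated polyGluTyr captured on streptavidin plates. Reactions ran 1 h at 30 °C with GST-fused HER-2 residues 679–1255, 1 μM ATP, Mn2+ and Mg2+ at pH 7.5; data given as percent inhibition at 1 μM, with IC50 where determined.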

T1 sequence (P04626 679-1255): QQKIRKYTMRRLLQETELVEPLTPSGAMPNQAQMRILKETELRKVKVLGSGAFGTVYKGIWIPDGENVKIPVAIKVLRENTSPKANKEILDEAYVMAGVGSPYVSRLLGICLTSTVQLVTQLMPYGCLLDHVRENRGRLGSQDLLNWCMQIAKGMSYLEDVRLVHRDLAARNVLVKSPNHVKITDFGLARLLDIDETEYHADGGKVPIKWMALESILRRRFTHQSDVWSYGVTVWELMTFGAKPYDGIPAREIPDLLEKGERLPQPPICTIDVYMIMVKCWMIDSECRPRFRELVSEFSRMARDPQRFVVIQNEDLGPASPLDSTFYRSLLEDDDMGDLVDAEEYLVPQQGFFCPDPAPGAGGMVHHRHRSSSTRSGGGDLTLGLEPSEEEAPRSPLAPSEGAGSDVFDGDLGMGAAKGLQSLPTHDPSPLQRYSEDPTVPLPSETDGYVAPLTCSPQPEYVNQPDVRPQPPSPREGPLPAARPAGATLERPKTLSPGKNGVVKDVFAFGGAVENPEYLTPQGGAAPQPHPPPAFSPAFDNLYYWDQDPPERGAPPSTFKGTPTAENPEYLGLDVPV

Compound	IC50 (A375 malignant melanoma) [µM]	IC50 [1] [µM]	inhibition at 1 µM (HER-2) [%]	IC50 (HER-2) [µM]
O=C(Nc1ccc(CN2CCOCC2)cc1)c1sc2ncnc3c2c1NC(=O)N3c1cccc(Br)c1 [Cpd 36, 5-(3-bromo-phenyl)-4-oxo-4,5-dihydro-3H-1-thia-3,5,6,8-tetraaza-acenaphthylene-2-carboxylic acid (4-morpholin-4-ylmethyl-phenyl)-amide]	10	≥ 10	60	0.295
O=C(O)c1sc2ncnc3c2c1NC(=O)N3c1ccc(OCc2ccccn2)c(Cl)c1 [Cpd 38, 5-[3-chloro-4-(pyridin-2-ylmethoxy)-phenyl]-4-oxo-4,5-dihydro-3H-1-thia-3,5,6,8-tetraaza-acenaphthylene-2-carboxylic acid]	100	≥ 100	-7	–
COc1ccc(NC(=O)c2sc3ncnc4c3c2NC(=O)N4c2ccc(OCc3ccccn3)c(Cl)c2)cc1OC [Cpd 48, 5-[3-chloro-4-(pyridin-2-ylmethoxy)-phenyl]-4-oxo-4,5-dihydro-3H-1-thia-3,5,6,8-tetraaza-acenaphthylene-2-carboxylic acid (3,4-dimethoxy-phenyl)-amide]	17.2	≥ 10	45	–
O=C(Nc1ccc(CN2CCOCC2)cc1)c1sc2ncnc3c2c1NC(=O)N3c1ccc(OCc2ccccn2)c(Cl)c1 [Cpd 52, 5-[3-chloro-4-(pyridin-2-ylmethoxy)-phenyl]-4-oxo-4,5-dihydro-3H-1-thia-3,5,6,8-tetraaza-acenaphthylene-2-carboxylic acid (4-morpholin-4-ylmethyl-phenyl)-amide]	100	≥ 100	95	0.246
O=C(O)c1sc2ncnc3c2c1NC(=O)N3c1ccc2c(ccn2Cc2cccc(F)c2)c1 [Cpd 77, 5-[1-(3-fluoro-benzyl)-1H-indol-5-yl]-4-oxo-4,5-dihydro-3H-1-thia-3,5,6,8-tetraaza-acenaphthylene-2-carboxylic acid]	100	≥ 100	–	1.37
CCOC(=O)c1sc2ncnc3c2c1NC(=O)N3c1ccc2c(cnn2Cc2cccc(F)c2)c1 [Cpd 78, 5-[1-(3-fluoro-benzyl)-1H-indazol-5-yl]-4-oxo-4,5-dihydro-3H-1-thia-3,5,6,8-tetraaza-acenaphthylene-2-carboxylic acid ethyl ester]	100	≥ 100	–	> 100
O=C(O)c1sc2ncnc3c2c1NC(=O)N3c1ccc2c(cnn2Cc2cccc(F)c2)c1 [Cpd 79, 5-[1-(3-fluoro-benzyl)-1H-indazol-5-yl]-4-oxo-4,5-dihydro-3H-1-thia-3,5,6,8-tetraaza-acenaphthylene-2-carboxylic acid]	100	≥ 100	–	> 10
O=C(Nc1ccc(CN2CCCCC2)cc1)c1sc2ncnc3c2c1NC(=O)N3c1ccc2c(cnn2Cc2cccc(F)c2)c1 [Cpd 80, 5-[1-(3-fluoro-benzyl)-1H-indazol-5-yl]-4-oxo-4,5-dihydro-3H-1-thia-3,5,6,8-tetraaza-acenaphthylene-2-carboxylic acid (4-piperidin-1-ylmethyl-phenyl)-amide]	10.1	5.14	–	0.121
O=C(Nc1ccc(CN2CCCCC2)cc1)c1sc2ncnc3c2c1NC(=O)N3c1ccc2c(ccn2Cc2cccc(F)c2)c1 [Cpd 87, 5-[1-(3-fluoro-benzyl)-1H-indol-5-yl]-4-oxo-4,5-dihydro-3H-1-thia-3,5,6,8-tetraaza-acenaphthylene-2-carboxylic acid (4-piperidin-1-ylmethyl-phenyl)-amide]	6.79	3.19	–	0.15
CC(C)(C)OC(=O)N1CCC(NC(=O)c2sc3ncnc4c3c2NC(=O)N4c2ccc3c(ccn3Cc3cccc(F)c3)c2)CC1 [Cpd 91, 4-({5-[1-(3-fluoro-benzyl)-1H-indol-5-yl]-4-oxo-4,5-dihydro-3H-1-thia-3,5,6,8-tetraaza-acenaphthylene-2-carbonyl}-amino)-piperidine-1-carboxylic acid tert-butyl ester]	10	1	–	2.19
CN1CCC(NC(=O)c2sc3ncnc4c3c2NC(=O)N4c2ccc3c(ccn3Cc3cccc(F)c3)c2)CC1 [Cpd 92, 5-[1-(3-fluoro-benzyl)-1H-indol-5-yl]-4-oxo-4,5-dihydro-3H-1-thia-3,5,6,8-tetraaza-acenaphthylene-2-carboxylic acid (1-methyl-piperidin-4-yl)-amide]	4.89	4.3	–	0.36
O=C(NCCN1CCOCC1)c1sc2ncnc3c2c1NC(=O)N3c1ccc2c(ccn2Cc2cccc(F)c2)c1 [Cpd 93, 5-[1-(3-fluoro-benzyl)-1H-indol-5-yl]-4-oxo-4,5-dihydro-3H-1-thia-3,5,6,8-tetraaza-acenaphthylene-2-carboxylic acid (2-morpholin-4-yl-ethyl)-amide]	10	≥ 10	–	0.779
O=C(Nc1ccc(N2CCOCC2)cc1)c1sc2ncnc3c2c1NC(=O)N3c1ccc2c(ccn2Cc2cccc(F)c2)c1 [Cpd 94, 5-[1-(3-fluoro-benzyl)-1H-indol-5-yl]-4-oxo-4,5-dihydro-3H-1-thia-3,5,6,8-tetraaza-acenaphthylene-2-carboxylic acid (4-morpholin-4-yl-phenyl)-amide]	100	≥ 100	–	~10
O=C(NCCCN1CCOCC1)c1sc2ncnc3c2c1NC(=O)N3c1ccc2c(ccn2Cc2cccc(F)c2)c1 [Cpd 95, 5-[1-(3-fluoro-benzyl)-1H-indol-5-yl]-4-oxo-4,5-dihydro-3H-1-thia-3,5,6,8-tetraaza-acenaphthylene-2-carboxylic acid (3-morpholin-4-yl-propyl)-amide]	10	≥ 10	–	0.35
CCOC(=O)c1sc2ncnc3c2c1NC(=O)N3c1ccc(Oc2ccc(F)cc2)cc1 [Cpd 101, 5-[4-(4-fluoro-phenoxy)-phenyl]-4-oxo-4,5-dihydro-3H-1-thia-3,5,6,8-tetraaza-acenaphthylene-2-carboxylic acid ethyl ester]	100	≥ 100	–	> 100
CCOC(=O)c1sc2ncnc3c2c1NC(=O)N3c1ccc(C)c(Br)c1 [Cpd 102, 5-(3-bromo-4-methyl-phenyl)-4-oxo-4,5-dihydro-3H-1-thia-3,5,6,8-tetraaza-acenaphthylene-2-carboxylic acid ethyl ester]	100	≥ 100	–	> 100
CCOC(=O)c1sc2ncnc3c2c1NC(=O)N3c1cc(Br)ccc1C [Cpd 103, 5-(5-bromo-2-methyl-phenyl)-4-oxo-4,5-dihydro-3H-1-thia-3,5,6,8-tetraaza-acenaphthylene-2-carboxylic acid ethyl ester]	100	≥ 100	–	> 100
Cc1ccc(N2C(=O)Nc3c(C(=O)Nc4ccc(CN5CCOCC5)cc4)sc4ncnc2c34)cc1Br [Cpd 108, 5-(3-bromo-4-methyl-phenyl)-4-oxo-4,5-dihydro-3H-1-thia-3,5,6,8-tetraaza-acenaphthylene-2-carboxylic acid (4-morpholin-4-ylmethyl-phenyl)-amide]	100	≥ 100	–	0.148
Cc1ccc(Br)cc1N1C(=O)Nc2c(C(=O)Nc3ccc(CN4CCOCC4)cc3)sc3ncnc1c23 [Cpd 109, 5-(5-bromo-2-methyl-phenyl)-4-oxo-4,5-dihydro-3H-1-thia-3,5,6,8-tetraaza-acenaphthylene-2-carboxylic acid (4-morpholin-4-ylmethyl-phenyl)-amide]	10	≥ 10	–	0.684
O=C(Nc1ccc(CN2CCOCC2)cc1)c1sc2ncnc3c2c1NC(=O)N3c1ccc(Oc2ccc(F)cc2)cc1 [Cpd 110, 5-[4-(4-fluoro-phenoxy)-phenyl]-4-oxo-4,5-dihydro-3H-1-thia-3,5,6,8-tetraaza-acenaphthylene-2-carboxylic acid (4-morpholin-4-ylmethyl-phenyl)-amide]	100	15.5	–	0.161
Cc1ccc(N2C(=O)Nc3c(C(=O)NC4CCN(C)CC4)sc4ncnc2c34)cc1Br [Cpd 116, 5-(3-bromo-4-methyl-phenyl)-4-oxo-4,5-dihydro-3H-1-thia-3,5,6,8-tetraaza-acenaphthylene-2-carboxylic acid (1-methyl-piperidin-4-yl)-amide]	10	≥ 10	–	1.7
